Positions of bridges follow the written chain, without caps; N, C: chain ends. Non-standard residues stand in square brackets, D forms with d. Residues, ends and D or L forms follow the SMILES beside them. *: point of attachment. Ileψ(thiazoline)Cys = CC[C@H](C)[C@H](N)C1=N[C@H](C(=O)*)CS1; dOrn = NCCC[C@@H](N)C(=O)O
Legend:
[1] = Growth promotion and feed efficiency in chicks, Example VII (Table I); type: in vivo, broiler cross chicks; settings: bacitracin 4 g/T alone in basal ration (negative control); 4 weeks
From the text: One hundred 20 day-old broiler cross chicks were weight equalized into 15 groups of eight chicks each and placed in battery brooders. The 40 chick treatment groups (five replicates) were fed the one of the three rations described below for a 4 week period. Weekly measurements of body weights and feed consumption were made by replicate, and these measurements used to calculate weight gain and feed efficiency.
The commercial type broiler starter basal ration which was used in this study was designated as the Basal Ration, and had the following composition:
The preceding basal ration was mixed with bacitracin at a level of 4 g/T as the only growth stimulant to simulate commercial practice. This mixture was designated as the Basal Ration + Bacitracin (4 g/T) and constituted the negative control in this study.
A second ration was prepared by fortifying the Basal Ration + bacitracin described above with the Product from Example I above at a level of 200 g/T, and was designated as Basal Ration + Bacitracin + Product of Example I (200 g/T). A third ration was prepared by fortifying the Basal Ration + bacitracin described above with chlortetracycline (CTC) at a level of 200 g/T, and was designated as Basal Ration + Bacitracin + Chlortetracycline (200 g/T). Chlortetracycline served as the positive control in this test because it had shown strong growth promotion in numerous previous tests at this therapeutic level.
The commercial value of the product of Example I is indicated by the fact that these significant responses were obtained in addition to the growth stimulation provided by the presence of bacitracin in the ration. It is important to note that the negative controls in this example and in Examples VIII and X which follow were characterized by rapid rates of growth. This high plane of growth and feed efficiency performance on the part of the negative controls makes the responses to the test compounds all the more meaningful.
The term "growth promotion" is used herein to describe the beneficial effect of a compound in eliciting a more rapid rate of weight gain when compared to the weight gain of control animals not fed the compound. "Feed efficiency" is a term regularly used in animal husbandry and is a measure of the pounds of feed required to produce a pound of gain in the weight of the animal. A lower mathmatical value for feed efficiency reflects improved performance. […] In this case, as in the case of the weight gain (fifth column), an improved performance is indicated by a higher positive number.

[2] = Growth promotion in chicks at low feed levels, Example VIII (Table II); type: in vivo, broiler cross chicks; settings: 4 g/T in basal ration; 4 weeks
From the text: Day old broiler cross chicks were weight equalized into groups of eight chicks each and were placed in battery brooders. The 32 chick treatment groups (four replicates) were fed one of the five rations described below for a 4 week period. Weekly measurements of body weights and feed consumption were made by replicate, and these measurements used to calculate weight gain and feed efficiency.
The basal ration was the basal ration used in Example VII above. The remaining five rations were obtained by mixing the indicated quantities of bacitracin (4 g/T), chlortetracycline (10 g/T), product of Example I (10 g/T), and product of Example III of U.S. Pat. No. 3,542,784 -- Burch (10 g/T) as growth promotants with the basal ration.

[3] = Growth promotion in chicks, Example XI (Table V); type: in vivo, broiler cross chicks; settings: for feed efficiency (in words) / growth rate (in words): 25 g/T; for Average 4 Week Performance: Feed Efficiency / Average 4 Week Performance: Gain / Improved Response Over Basal Ration: Feed Efficiency / Improved Response Over Basal Ration: Gain: 25 g/T in basal ration, 4 weeks
From the text: (§1) This example compares growth promotion activity of the product of Example I with other growth promotants at a concentration of 25 g/T in the Basal Ration described in Example VII. The other growth promotants include the product described in Example I of U.S. Pat. No. 3,542,784 -- Burch and quinoxaline-1,4-dioxide. Day old broiler cross chicks were weight equalized into groups of eight chicks each, and four replicates of eight chicks each were fed the experimental rations over a 4 week period.
The growth promotion tests described in Example X were repeated with the exception that five replicates of eight chicks each were fed the formulations described in Table V for 4 weeks.

Streptococcus faecalis = experiment: Bactericide test, Streptococcus faecalis (agar streak plate); type: cell-based; settings: 100% inhibition at lower concentrations
From the text: (§2) Test formulations were examined for bactericidal and/or bacteriostatic activity against the test organisms shown in Tables A and B. These organisms were chosen as being representative of commercially important pathogens affecting animal agriculture. The antibiotic chlortetracycline was chosen as a positive control, since it has a broad spectrum of activity against a large number of organisms, and its activity can be used for comparative purposes.
(§3) Basic test formulations of the product of Examples I, II, III, and of chlortetracycline were prepared by dissolving 16 mg (0.016 g) in 2.0 ml of stock emulsifier solution (0.25% Triton X-155 in acetone by volume) and making each solution up to 50 ml with deionized water. The concentration of the test compound in the basic formulation was 320 ppm. Lower concentrations of the test compound were obtained by diluting the basic formulation with a 4% solution of the stock emulsifier in deionized water so that each dilution in the series differed only in test compound content.
(§4) Nutrient-tryptic soy agar (NTA) consisting of 2.0% Difco Bactoagar 0.8% nutrient broth (Difco), and 0.5% tryptic soy broth (Difco) was prepared and sterilized by autoclaving. A 2 ml aliquot of each test formulation was added to 8 ml of molten NTA. This mixture was then plated in a sterile polystyrene petri dish (100 × 15 mm). After the agar was set, suspensions of each of the test organisms were simultaneously streaked onto the surface of the agar. The inoculated plates were incubated for 48 hr at 28°C. The inhibition of growth of each organism was rated by visual comparison with the organism developing on non-treated agar. Growth inhibition reported as per cent control was rated in three categories as follows: 0% control, growth equivalent to that on non-treated agar; 50% control, sparse development and separated colonies; 100% control, no visible growth or development of colonies.
(§5) Test formulations of the product of Example IV were examined for bactericidal and/or bacteriostatic activity against the test organisms shown in Table B using the Bactericide Test described in Example V. The inhibition of organism growth with each diluted test formulation was rated visually by comparison with the organism developing on a non-treated control agar plate. Growth inhibition reported as per cent control was rated in three categories as follows: 0% control, growth equivalent to that on non-treated agar; 50% control is sparse development and separated colonies; and 100% control, development of individual colonies was not apparent.

Salmonella cholerasuis = experiment: Bactericide test, Salmonella cholerasuis (agar streak plate); type: cell-based; settings: Salmonella, read-out: % Control In Vitro Growth
From the text: as §2, §3, §4, §5

Salmonella gallinarum = experiment: Bactericide test, Salmonella gallinarum (agar streak plate); type: cell-based; settings: Salmonella enterica, GALLINARUM, read-out: % Control In Vitro Growth
From the text: as §2, §3, §4, §5

[4] = system: Erysipelothrix rhusiopathiae; experiment: Bactericide test, Erysipelothrix rhusiopathiae (agar streak plate); type: cell-based; settings: 100% inhibition at lower concentrations
From the text: as §2, §3, §4

[5] = system: Bordetella bronchiseptica; experiment: Bactericide test, Bordetella bronchiseptica (agar streak plate); type: cell-based; settings: 100% inhibition at lower concentrations
From the text: as §2, §3, §4

Streptococcus agalactiae = experiment: Bactericide test, Streptococcus agalactiae (agar streak plate); type: cell-based; settings: 100% inhibition at lower concentrations
From the text: as §2, §3, §4

Streptococcus group E = experiment: Bactericide test, Streptococcus group E (agar streak plate); type: cell-based; settings: 100% inhibition at lower concentrations
From the text: as §2, §3, §4

Vibrio coli = experiment: Bactericide test, Vibrio coli (agar streak plate); type: cell-based; settings: 100% inhibition at lower concentrations
From the text: as §2, §3, §4

[6] = Growth promotion in chicks at 25 g/T, Example X (Table IV); type: in vivo, broiler cross chicks
From the text: as §1

[7] = 25 g/T in basal ration, 4 weeks

CC[C@H](C)[C@H](N)C1=N[C@H](C(=O)N[C@@H](CC(C)C)C(=O)N[C@H](CCC(=O)O)C(=O)N[C@H](C(=O)N[C@H]2CCCCNC(=O)[C@H](CC(N)=O)NC(=O)[C@@H](CC(=O)O)NC(=O)[C@H](Cc3cnc[nH]3)NC(=O)[C@@H](Cc3ccccc3)NC(=O)[C@H]([C@@H](C)CC)NC(=O)[C@@H](CCCN)NC2=O)[C@@H](C)CC)CS1 [Bacitracin] ({Ileψ(thiazoline)Cys}-L[dE]IK[dOrn]I[dF]H[dD]N; lactam 4-C)
Average 4 Week Performance: Feed Efficiency [1]: 1.721
Average 4 Week Performance: Gain [1]: 694.5 gms
Average 4 Week Performance: Feed Efficiency [2]: 1.739
Average 4 Week Performance: Gain [2]: 703.6 g
Improved Response Over Basal Ration: Feed Efficiency [2]: +1.2%
Improved Response Over Basal Ration: Gain [2]: -2.3%
feed efficiency (in words) [3]: moderate improvements in feed efficiencies
growth rate (in words) [3]: slight improvements in growth rates
Average 4 Week Performance: Feed Efficiency [3]: 1.746
Average 4 Week Performance: Gain [3]: 741.3 g
Improved Response Over Basal Ration: Feed Efficiency [3]: +3.1%
Improved Response Over Basal Ration: Gain [3]: +1.2%

O=[N+]([O-])c1ccc(C=Cc2nc(Nc3ccccc3)c3ccccc3n2)o1 [Example IV, 2-[2-(5-nitro-2-furyl)vinyl]-4-anilinoquinazoline]
effectiveness compared with chlortetracycline (in words) (Streptococcus faecalis): considerably more effective
inhibition of growth at 0.007 ppm (Salmonella cholerasuis; 0.007 ppm): 0%
inhibition of growth at 0.01 ppm (Salmonella cholerasuis; 0.01 ppm): 0%
inhibition of growth at 0.03 ppm (Salmonella cholerasuis; 0.03 ppm): 0%
inhibition of growth at 0.06 ppm (Salmonella cholerasuis; 0.06 ppm): 0%
inhibition of growth at 0.125 ppm (Salmonella cholerasuis; 0.125 ppm): 0%
inhibition of growth at 0.25 ppm (Salmonella cholerasuis; 0.25 ppm): 0%
inhibition of growth at 0.5 ppm (Salmonella cholerasuis; 0.5 ppm): 0%
inhibition of growth at 1 ppm (Salmonella cholerasuis; 1 ppm): 50%
inhibition of growth at 2 ppm (Salmonella cholerasuis; 2 ppm): 50%
inhibition of growth at 4 ppm (Salmonella cholerasuis; 4 ppm): 50%
inhibition of growth at 0.007 ppm (Salmonella gallinarum; 0.007 ppm): 0%
inhibition of growth at 0.01 ppm (Salmonella gallinarum; 0.01 ppm): 0%
inhibition of growth at 0.03 ppm (Salmonella gallinarum; 0.03 ppm): 0%
inhibition of growth at 0.06 ppm (Salmonella gallinarum; 0.06 ppm): 0%
inhibition of growth at 0.125 ppm (Salmonella gallinarum; 0.125 ppm): 0%
inhibition of growth at 0.25 ppm (Salmonella gallinarum; 0.25 ppm): 100%
inhibition of growth at 0.5 ppm (Salmonella gallinarum; 0.5 ppm): 100%
inhibition of growth at 1 ppm (Salmonella gallinarum; 1 ppm): 100%
inhibition of growth at 2 ppm (Salmonella gallinarum; 2 ppm): 100%
inhibition of growth at 4 ppm (Salmonella gallinarum; 4 ppm): 100%
effectiveness compared with chlortetracycline (in words) [4]: considerably more effective
effectiveness compared with chlortetracycline (in words) [5]: considerably more effective
effectiveness compared with chlortetracycline (in words) (Streptococcus agalactiae): considerably more effective
effectiveness compared with chlortetracycline (in words) (Streptococcus group E): considerably more effective
effectiveness compared with chlortetracycline (in words) (Vibrio coli): considerably more effective

[O-][n+]1cc[n+]([O-])c2ccccc21 [Quinoxaline-1,4-dioxide, quinoxaline-1,4-dioxide]
effect on feed efficiency (in words) ([6]; 25 g/T): did not have any apparent effect
growth response (in words) ([6]; 25 g/T): did not have any apparent effect
Average 4 Week Performance: Feed Efficiency [6, 7]: 1.550
Average 4 Week Performance: Gain [6, 7]: 756.6 g
Improved Response Over Basal Ration: Feed Efficiency [6, 7]: +0.1%
Improved Response Over Basal Ration: Gain [6, 7]: -1.1%
feed efficiency (in words) [3]: improvement in feed efficiency
growth rate (in words) [3]: questionable effect on growth
Average 4 Week Performance: Feed Efficiency [3]: 1.709
Average 4 Week Performance: Gain [3]: 740.8 g
Improved Response Over Basal Ration: Feed Efficiency [3]: +5.2%
Improved Response Over Basal Ration: Gain [3]: +1.1%
